Data as given in PMC5072737, “Heterologous Expression and Delivery of Biologically Active Exendin-4 by Lactobacillus paracasei L14” (PLoS ONE, 2016).

Key:
INS-1 cells [1] = assay: Staurosporine-induced apoptosis assay (Annexin V-PI, flow cytometry) in INS-1 cells; format: cell-based, rat; settings: pretreatment with the agent (none for staurosporine alone), then staurosporine 1 μmol/l for 1 h, n = 3
Procedure: INS-1 cells were seeded in 96-well plates at a density of 2 × 10^4 cells per well. After 36 h incubation, the cells were grown to nearly 60% confluence and the medium was replaced with RPMI 1640–exendin-4 medium diluted 1:1 (v/v) with fresh RPMI 1640 containing 10% FBS (100 μl per well). Standard GLP-1 in RPMI 1640 medium (100 nmol/l) was used as a positive control and pure RPMI 1640 medium was used as a blank control. The mixture was incubated for 24 h. The PI3K (phosphatidylinositol-3-kinase) antagonist treatment cells were preincubated with wortmannin (100 nmol/l) for 15 min before the treatment. The number of viable cells was then analyzed by cell counting kit-8 (CCK-8) assay (Biyuntian Biotech Co. Ltd.) based on the formation of formazan with sensitive changes in OD450 values. […] The absorbance was read at 450 nm using a Multiskan MK3 ELISA plate reader to determine the in vitro cell proliferation. For apoptosis assays, staurosporine (1 μmol/l) was added in all treatment groups for 1 h, after which the cells were treated with Annexin V-PI (propidium iodide) cell apoptosis kit (Biyuntian Biotech Co. Ltd.) and apoptosis was measured by flow cytometry using a FACScan (Becton Dickinson).

PDX-1 = assay: qRT-PCR of PDX-1 mRNA expression in INS-1 cells; format: cell-based, Rattus norvegicus; settings: INS-1 cells treated 2 h, ΔΔCT, β-actin reference, n = 3
Procedure: (§1) INS-1 cells were seeded in 24-well plates at a density of 10^5 cells per well and grown to 100% confluence before the assay. The medium was changed 24 h before the assay. For the assay, cells were quickly rinsed in 1 ml Hank's balanced salt solution (HBSS) with 3 mM glucose followed by a 2 h preincubation with 1 ml of the same buffer. Then the buffer was discarded, RPMI 1640–exendin-4 medium diluted 1:1 (v/v) with fresh medium plus 5 mM glucose (600 μl per well) were added, and the mixture was incubated for 2 h. Standard GLP-1 (100 nmol/l) in RPMI 1640 medium was used as a positive control. […] At the end of the incubation, supernatant was collected and centrifuged for 10 min at 4000 × g at 4°C and insulin concentration was determined by ELISA kit (Millipore, St. Charles, MO, USA). The cells were collected to analyze mRNA expression of pancreatic duodenal homeobox-1 (PDX-1) and insulin gene (Insulin).
(§2) Total RNA was isolated from INS-1 cells using TRIzol Reagent (Invitrogen). Reverse transcription was performed using PrimeScript II first-strand cDNA synthesis kit (Takara, China), containing 1 μg of total RNA as the template. qRT-PCR was carried out using a SYBR Green assay kit (Tiangen). Specific primers for PDX-1, Insulin and the internal control gene β-actin (Actb) from Rattus norvegicus were designed with Primer Premier 5 software (Table 2). […]

INS-1 cells [2] = assay: Insulin secretion assay in INS-1 cells; format: cell-based, rat; settings: 5 mM glucose
Procedure: as §1, with “buffer.” for “buffer. Then the buffer was discarded, RPMI 1640–exendin-4 medium diluted 1:1 (v/v) with fresh medium plus 5 mM glucose (600 μl per well) were added, and the mixture was incubated for 2 h. Standard GLP-1 (100 nmol/l) in RPMI 1640 medium was used as a positive control.”

[3] = native GLP-1, rapid inactivation by DPP-IV; cited from earlier work
Description: Glucagon-like peptide-1 (GLP-1) is a potent incretin produced by L-cells of the distal ileum and colon in response to nutrient intake. It has a variety of antidiabetic effects that are mediated through β-cells in pancreatic islets and peripheral tissues. These include not only the promotion of glucose-dependent insulin secretion and inhibition of glucagon secretion, but also inhibition of food intake and body weight gain by delaying gastric emptying, increasing β-cell mass, and enhancing insulin sensitivity. However, despite its favorable antidiabet ...

Insulin (Ins1 and Ins2) = assay: qRT-PCR of insulin gene mRNA expression in INS-1 cells; format: cell-based, Rattus norvegicus; settings: INS-1 cells treated 2 h, ΔΔCT, β-actin reference, n = 3
Procedure: as §1, §2

Caco-2 cell monolayer = assay: Transport of exendin-4 through Caco-2 monolayer; format: in vitro ADME; settings: Caco-2 monolayer (~21 days, transwell 0.4 μm, 4.67 cm^2), apical to basolateral, s-DMEM without antibiotics, 37°C; first 3 h; ELISA; mean ± SD, n = 3
Procedure: Caco-2 cells (10–20 passages) were cultivated in 25-cm^2 flasks in DMEM supplemented with 10% (v/v) FBS, 1% (v/v) non-essential amino acids and 100 IU/ml penicillin–100μg/ml streptomycin (s-DMEM) at 37°C in an atmosphere of 5% CO2 and high humidity. Upon 80% confluence, cells were harvested using 0.25% trypsin EDTA and seeded on the polyester inserts (0.4 μm pore size, 24 mm diameter, 4.67 cm^2 grown surface, Costar, Corning, NY) in 6-well transwell plates at a density of 10^5 cell/cm^2 and incubated under normal cell culture conditions. The culture medium was replaced every other day for the first week and then every day until it was ready for transport studies when the monolayer became confluent and the transepithelial electrical resistance (TEER) reading reached a plateau (about 21 days). The TEER was monitored according to the method described by Hubatsch et al.
After the Caco-2 monolayer cell became confluent, the culture medium was washed twice by PBS (pH 7.4). […] Caco-2 cell viability was then measured by trypan blue assay at 0, 2, 4 and 6 h after the addition of L14/pMG76e-exendin-4 cells. […] At predetermined time points, 100 and 200 μl supernatant samples were withdrawn from the apical and basolateral sides, respectively, for exendin-4 quantification by ELISA and replaced with an equal volume of s-DMEM without the antibiotics. […]

Compound | Number of earliest-stage apoptotic cells, % of the control with no staurosporine (INS-1 cells [1]) [%] | PDX-1 mRNA expression, fold of the blank control (PDX-1) [fold] | Insulin secretion, higher than the blank control (RPMI 1640 only) (INS-1 cells [2]; 2 h, blank control 66.5 ± 0.5 ng/ml) [%] | Insulin secretion (insulin concentration in supernatant) (INS-1 cells [2]; 2 h incubation, conditioned medium diluted 1:1 with fresh medium, GLP-1 at 100 nmol/l, insulin ELISA, mean ± SD, n = 3) [ng/mL] | Half-life in vivo [3] [min] | Insulin mRNA expression, fold of the blank control (Insulin (Ins1 and Ins2)) [fold] | Exendin-4 transport rate through the cell monolayer (Caco-2 cell monolayer) [pMol cm^-2 h^-1]
Glucagon-like peptide-1 [GLP-1] | 170 | 1.9 | 7 | 71.4 ± 0.7 | 1 to 2 | 1.7 | –
exendin-4 [standard exendin-4] | – | – | – | – | – | – | 0.15 ± 0.013
CN[C@@H]1C[C@H]2O[C@@](C)([C@@H]1OC)n1c3ccccc3c3c4c(c5c6ccccc6n2c5c31)C(=O)NC4 [staurosporine] | 264.3 | – | – | – | – | – | –
